This is an account of results in article PMC11305387, “AlphaFold accelerated discovery of psychotropic agonists targeting the trace amine–associated receptor 1” (Science Advances, 2024).

For orientation: Kp means tissue or fluid exposure divided by exposure in the circulation. The half-life is the time in which the quantity being followed falls by half. A lower half-life goes with rapid decline. As usually defined, the Emax is the greatest response seen or fitted, relative to the assay's reference.

The nature of data set [1]: In vivo pharmacokinetics, plasma and brain. On the set-up: species or system mice. As to the method:
Brains were collected and snap-frozen. Blood was sampled from the cervical vein upon decapitation in Eppendorf tubes containing 50 μl of 0.5 M EDTA and immediately centrifuged for 10 min at 3000g and 4°C. Isolated plasma was then transferred into clean polypropylene tubes. All samples were stored at −20°C before analysis.
Brains were weighed and homogenized 1:3 (w/v) in PBS using a Minilys Bead Homogenizer (Bertin Instruments). […] Samples were precipitated with acetonitrile (1:4) containing warfarin as analytical internal standard. The supernatants were injected into the LC-MS/MS system consisting of a TQ-S micro mass spectrometer coupled to an Acquity UPLC (Waters Corp, MA, USA). […] The obtained concentrations of brain homogenate samples were multiplied by 4 to account for the dilution during preparation of the homogenate. Pharmacokinetic parameters were determined from the experimental data by applying non-compartmental analysis using Microsoft Excel spreadsheet. The brain-to-plasma partition coefficient (Kp,brain) was calculated as the ratio of the area under the concentration–time curves (AUC) in brain versus plasma (AUCbrain/AUCplasma).

The target of data set [2] is T1, hTAAR1 (Homo sapiens, UniProt Q96RJ0).
T1 construct: expressed in transfected cells; host or cells: Expi293F
T1 sequence (Q96RJ0 1-339): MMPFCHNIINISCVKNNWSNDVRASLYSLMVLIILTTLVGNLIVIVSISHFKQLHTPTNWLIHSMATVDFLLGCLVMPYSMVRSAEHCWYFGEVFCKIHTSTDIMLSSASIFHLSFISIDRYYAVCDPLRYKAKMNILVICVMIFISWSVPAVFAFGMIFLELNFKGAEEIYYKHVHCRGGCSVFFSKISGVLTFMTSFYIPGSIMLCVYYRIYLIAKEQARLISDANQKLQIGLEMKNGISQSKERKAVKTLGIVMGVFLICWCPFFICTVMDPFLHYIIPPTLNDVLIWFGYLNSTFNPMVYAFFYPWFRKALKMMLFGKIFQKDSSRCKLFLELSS
The data set is described as follows: G protein (mini-Gs) recruitment luminescence complementation assay, agonist mode. Format: cell-based. As to the method:
The 62 predicted ligands were purchased from commercial vendors and tested for activity at a concentration of 20 μM in a luminescence complementation–based assay measuring recruitment of mini-Gs to the human TAAR1 ([38]).
To monitor TAAR1 activation by compounds, we used our previously described system. […] Cells were then reseeded in solid white, 96-well plates (Corning) with 90 μl of cell suspension per well. Luminescence was read using a plate reader for 5 min (SPARK 10 M, Tecan) before the addition of compounds to ensure signal stability. Ten microliters of each compound diluted in DPBS was added, and luminescence from each well was read for 10 min, with 100-ms read time per well. The A2AR counter-screen was performed using the same protocol. In these experiments, the hTAAR1 was replaced by a C-terminally SmBiT-tagged hA2AR construct.

For data set [3], the target named is T2, α2A receptor (Homo sapiens, UniProt P08913).
T2 construct: TANGO fusion module (own knowledge, Kroeze et al.: C-terminal V2 tail, TEV site and tTA); 1000000068; host or cells: HTLA (HEK293-derived)
T2 sequence (P08913 1-465): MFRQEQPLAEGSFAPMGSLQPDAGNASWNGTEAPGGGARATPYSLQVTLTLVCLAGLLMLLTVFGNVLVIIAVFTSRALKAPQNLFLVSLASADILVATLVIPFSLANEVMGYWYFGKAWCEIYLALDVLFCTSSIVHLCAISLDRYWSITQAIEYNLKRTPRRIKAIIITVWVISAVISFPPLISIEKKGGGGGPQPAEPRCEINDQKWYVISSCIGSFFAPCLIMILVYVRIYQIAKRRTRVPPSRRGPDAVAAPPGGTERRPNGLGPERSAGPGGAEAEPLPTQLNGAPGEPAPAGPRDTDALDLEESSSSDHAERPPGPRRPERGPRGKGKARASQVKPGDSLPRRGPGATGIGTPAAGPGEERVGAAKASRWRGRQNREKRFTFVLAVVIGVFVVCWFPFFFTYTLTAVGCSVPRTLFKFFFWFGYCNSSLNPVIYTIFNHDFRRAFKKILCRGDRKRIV
The data set is described as follows: PRESTO-TANGO β-arrestin recruitment. It counts as cell-based. For orientation: Arrestin recruitment assays detect the binding of arrestin to an activated receptor.
Experimental: Assessment of receptor activation by compounds at all human aminergic receptors were carried out using a modified version of the PRESTO-TANGO method. […] The plate was spun down, and 5 μl of a 1:25 dilution (in DPBS) of polyethylenimine (PEI) derivative (Transporter 5, Polysciences) was added (1:4 cDNA to PEI ratio) and incubated for 20 min at room temperature (RT). […] Luminescence signal was detected using a plate-reader (SPARK, Tecan) with 100-ms integration time and a 100-ms delay between well reads.

For `CC1=C(c2ccco2)CNCC1` [Compound 65], the Clearance in data set [1] (after intraperitoneal administration, 1 mg/kg, mice, estimated) is given as 225 ml/min per kg. Moreover, the “brain concentration by 4 hours” value in data set [1] (below lower limit of quantification, mice, i.p. 1 mg/kg) is below 40 pmol/g. In data set [1] (male, C57BL/6, mouse, brain and plasma, intraperitoneal, 1 mg/kg, total concentrations, AUCbrain/AUCplasma, read-out: brain-to-plasma partition coefficient Kp,brain), the Kp was found to be 7.9. The half-life in data set [1] (male, C57BL/6, mouse, ip, plasma, mice, intraperitoneal 1 mg/kg) was found to be 17 min. Also, the concentration at 4 h in data set [1] (male, C57BL/6, mouse, plasma, ip, below lower limit of quantification, mice, i.p. 1 mg/kg) was below 5 nM. In addition, the Cmax in data set [1] (male, C57BL/6, mouse, plasma, ip, mice, intraperitoneal 1 mg/kg, read-out: maximum plasma concentration (Cmax)) was determined as 850 ± 172 nM. Moreover, the Tmax in data set [1] (male, C57BL/6, mouse, plasma, ip, mice, intraperitoneal 1 mg/kg, read-out: time to maximum plasma concentration) was at most 5 min. Besides, in data set [1] (mice, intraperitoneal 1 mg/kg), the “maximum concentration in brain” value is 4707 ± 766 pmol/g, the “time to maximum brain concentration” value is at most 5 min and the “volume of distribution (V)” value is 6.3 L/kg. The EC50 in data set [2] (TAAR1, G protein recruitment assay, read-out: pEC50 (converted)) is 25.1 nM. Also, the “fold more potent than Ulotaront” value in data set [2] (TAAR1 G protein recruitment) was above 25 fold. Moreover, the EC50 in data set [3] was 1000 nM. In addition, the Emax in data set [3] (concentration-response curves) is 110%. Also, the “agonism at the α2A receptor” value in data set [3] (panel screen) is recorded as “agonism”.
